The values below come from patent US8349829B2, “[4-(1-amino-ethyl)-cyclohexyl]-methyl-amine and [6-(1-amino-ethyl)-tetrahydro-pyran-3-yl]-methyl-amine derivatives as antibacterials” (Actelion Pharmaceuticals Ltd., priority 2008, dated 2013).

≈ marks a conversion by molar mass, not a printed value. Bounds are passed on as bounds.

For orientation: MIC means the least concentration at which growth counts as inhibited. Low values mean greater potency, high ones weaker potency.

Assay [1] has as its system P. aeruginosa 27853. The assay is described as follows: MIC by microdilution in cation-adjusted Mueller-Hinton Broth (NCCLS). The assay is classed as cell-based. Particulars: for MIC: Pseudomonas aeruginosa, 27853, pH 7.2-7.3; for MIC for P. aeruginosa 27853: pH 7.2-7.3. As to the method:
(§1) These assays have been performed following the description given in “Methods for dilution Antimicrobial Susceptibility Tests for Bacteria that Grow Aerobically, 4th ed.; Approved standard: NCCLS Document M7-A4; National Committee for Clinical Laboratory Standards: Villanova, Pa., USA, 1997”. Minimal inhibitory concentrations (MICs; mg/l) were determined in cation-adjusted Mueller-Hinton Broth (BBL) by a microdilution method following NCCLS guidelines (National Committee for Clinical Laboratory Standards. Methods for Dilution Antimicrobial Susceptibility). The pH of the test medium was 7.2-7.3. All Example compounds were tested against several Gram positive and Gram negative bacteria such as S. aureus, E. faecalis, S. pneumoniae, M catarrhalis, A. baumanii, E. coli or P. aeruginosa.
(In general: Broth dilution looks for growth in wells or tubes with falling amounts of substance.)

Assay [2] relates to E. coli 25922. The description is as above. The assay is classed as cell-based. Particulars: for MIC: Escherichia coli, 25922, pH 7.2-7.3; for MIC for E. coli 25922: pH 7.2-7.3. How it is done: as §1

As for `COc1ccc2ccc(=O)n(CC(N)[C@H]3CC[C@H](NCc4ccc5c(n4)NC(=O)CS5)CC3)c2c1` (mixture of isomers) [Ref. Ex. 1, rac-6-(trans-{4-[1-amino-2-(7-methoxy-2-oxo-2H-quinolin-1-yl)-ethyl]-cyclohexylamino}-methyl)-4H-pyrido[3,2-b][1,4]thiazin-3-one], the MIC in assay [1] came to 0.5 µg/mL (≈ 1.01 µM); in assay [2], 0.25 µg/mL (≈ 0.506 µM).

On to `COc1ccc2ccc(=O)n(C[C@H](N)[C@H]3CC[C@H](NCc4ccc5c(n4)NC(=O)CS5)CC3)c2c1` [Example 1, 6-(trans-{4-[(1R)-1-amino-2-(7-methoxy-2-oxo-2H-quinolin-1-yl)-ethyl]-cyclohexylamino}-methyl)-4H-pyrido[3,2-b][1,4]thiazin-3-one], for which the MIC in assay [1] was determined as 0.25 µg/mL (≈ 0.506 µM); in assay [2] it was 0.063 µg/mL (≈ 0.128 µM).

`COc1ccc2ccc(=O)n(CC(N)[C@H]3CC[C@H](NCc4ccc5c(n4)NC(=O)CO5)CC3)c2c1` (mixture of isomers) [Ref. Ex. 2, rac-6-(trans-{4-[1-amino-2-(7-methoxy-2-oxo-2H-quinolin-1-yl)-ethyl]-cyclohexylamino}-methyl)-4H-pyrido[3,2-b][1,4]oxazin-3-one]: the MIC in assay [1] and in assay [2] was 0.5 µg/mL (≈ 1.05 µM) each time.

In the case of `COc1ccc2ccc(=O)n(C[C@H](N)[C@@H]3CC[C@@H](NCc4ccc5c(n4)NC(=O)CS5)CO3)c2n1` [Example 10, 6-({(3R,6S)-6-[(1S)-1-amino-2-(7-methoxy-2-oxo-2H-[1,8]naphthyridin-1-yl)-ethyl]-tetrahydro-pyran-3-ylamino}-methyl)-4H-pyrido[3,2-b][1,4]thiazin-3-one], the MIC was 0.5 µg/mL (≈ 1.01 µM) in assay [1] and no more than 0.031 µg/mL in assay [2].

With `COc1ccc2ccc(=O)n(C[C@H](N)[C@@H]3CC[C@@H](NCc4ccc5c(n4)NC(=O)CO5)CO3)c2c1` [Example 3, 6-({(3R,6S)-6-[(1S)-1-amino-2-(7-methoxy-2-oxo-2H-quinolin-1-yl)-ethyl]-tetrahydro-pyran-3-ylamino}-methyl)-4H-pyrido[3,2-b][1,4]oxazin-3-one], the MIC in assay [1] came out at 4 µg/mL (≈ 8.34 µM); in assay [2], 0.25 µg/mL (≈ 0.521 µM).

Regarding `COc1ccc2ccc(=O)n(C[C@H](N)[C@H]3CC[C@H](NCc4ccc5c(n4)NC(=O)CO5)CC3)c2c1` [Example 2, 6-(trans-{4-[(1R)-1-amino-2-(7-methoxy-2-oxo-2H-quinolin-1-yl)-ethyl]-cyclohexylamino}-methyl)-4H-pyrido[3,2-b][1,4]oxazin-3-one], the MIC in assay [1] and in assay [2] was 0.25 µg/mL (≈ 0.523 µM) in each case.

Turning to `COc1cnc2ccc(=O)n(C[C@H](N)[C@@H]3CC[C@@H](NCc4ccc5c(n4)NC(=O)CO5)CO3)c2c1` [Example 7, 6-({(3R,6S)-6-[(1S)-1-amino-2-(7-methoxy-2-oxo-2H-[1,5]naphthyridin-1-yl)-ethyl]-tetrahydro-pyran-3-ylamino}-methyl)-4H-pyrido[3,2-b][1,4]oxazin-3-one], the MIC was determined as 4 µg/mL (≈ 8.32 µM) in assay [1] and 1 µg/mL (≈ 2.08 µM) in assay [2].

Regarding `COc1ccc2ccc(=O)n(C[C@H](N)[C@@H]3CC[C@@H](NCc4ccc5c(n4)NC(=O)CO5)CO3)c2n1` [Example 11, 6-({(3R,6S)-6-[(1S)-1-amino-2-(7-methoxy-2-oxo-2H-[1,8]naphthyridin-1-yl)-ethyl]-tetrahydro-pyran-3-ylamino}-methyl)-4H-pyrido[3,2-b][1,4]oxazin-3-one], the MIC in assay [1] amounted to 8 µg/mL (≈ 16.6 µM); in assay [2], 0.5 µg/mL (≈ 1.04 µM).

With `COc1ccc2ccc(=O)n(C[C@H](N)[C@@H]3CC[C@@H](NCc4ccc5c(n4)NC(=O)CS5)CO3)c2c1` [Example 5], the “MIC for P. aeruginosa 27853” value in assay [1] was found to be 2 µg/mL. In addition, the “MIC for E. coli 25922” value in assay [2] was 0.125 µg/mL.

As for `COc1cnc2ccc(=O)n(C[C@H](N)[C@@H]3CC[C@@H](NCc4ccc5c(n4)NC(=O)CS5)CO3)c2c1` [Example 6, 6-({(3R,6S)-6-[(1S)-1-amino-2-(7-methoxy-2-oxo-2H-[1,5]naphthyridin-1-yl)-ethyl]-tetrahydro-pyran-3-ylamino}-methyl)-4H-pyrido[3,2-b][1,4]thiazin-3-one], the results for the MIC in assay [1] and in assay [2] were 2 µg/mL (≈ 4.03 µM) and 0.25 µg/mL (≈ 0.503 µM), respectively.

`COc1ccc2ccc(=O)n(C[C@H](N)[C@@H]3CC[C@@H](NC/C=C/c4cc(F)ccc4F)CO3)c2c1` [Example 4, 1-((2S)-2-amino-2-{(2S,5R)-5-[(E)-3-(2,5-difluoro-phenyl)-allylamino]-tetrahydro-pyran-2-yl}-ethyl)-7-methoxy-1H-quinolin-2-one]: the results for the MIC in assay [1] and in assay [2] were 2 µg/mL (≈ 4.26 µM) and 0.063 µg/mL (≈ 0.134 µM), respectively.

Regarding `COc1cnc2ccc(=O)n(C[C@H](N)[C@@H]3CC[C@@H](NCc4ccc5c(c4)NC(=O)CO5)CO3)c2c1` [Example 8, 6-({(3R,6S)-6-[(1S)-1-amino-2-(7-methoxy-2-oxo-2H-[1,5]naphthyridin-1-yl)-ethyl]-tetrahydro-pyran-3-ylamino}-methyl)-4H-benzo[1,4]oxazin-3-one], the MIC in assay [1] is 4 µg/mL (≈ 8.34 µM); in assay [2] it was 1 µg/mL (≈ 2.09 µM).

Regarding `COc1ccc2ccc(=O)n(C[C@H](N)[C@@H]3CC[C@@H](NCc4cc5c(cn4)OCCO5)CO3)c2n1` [Example 12, 1-((1S)-2-amino-2-{(2S,5R)-5-[(2,3-dihydro-[1,4]dioxino[2,3-c]pyridin-7-ylmethyl)-amino]-tetrahydro-pyran-2-yl}-ethyl)-7-methoxy-1H-[1,8]naphthyridin-2-one], the “MIC for P. aeruginosa 27853” value in assay [1] was determined as 0.5 µg/mL. Moreover, in assay [2], the “MIC for E. coli 25922” value came out at 0.063 µg/mL.

In the case of `COc1ccc2ccc(=O)n(CC(N)C3CCC(NC/C=C/c4cc(F)ccc4F)CC3)c2c1` [Example 13, 1-((1R)-2-amino-2-{4-[(E)-3-(2,5-difluoro-phenyl)-allylamino]-cyclohexyl}-ethyl)-7-methoxy-1H-quinolin-2-one], the “MIC for P. aeruginosa 27853” value in assay [1] was determined as 1 µg/mL. For the same compound, the “MIC for E. coli 25922” value in assay [2] was found to be 0.25 µg/mL.

On to `COc1ccc2ncc(=O)n(C[C@H](N)[C@@H]3CC[C@@H](NCc4ccc5c(n4)NC(=O)CS5)CO3)c2c1` [Example 9, 6-({(3R,6S)-6-[(1S)-1-amino-2-(7-methoxy-2-oxo-2H-quinoxalin-1-yl)-ethyl]-tetrahydro-pyran-3-ylamino}-methyl)-4H-pyrido[3,2-b][1,4]thiazin-3-one], for which the figures for the MIC in assay [1] and in assay [2] were 16 µg/mL (≈ 32.2 µM) and 0.25 µg/mL (≈ 0.503 µM), respectively.
